Assay results: patent US12649750B2, “Macrocyclic compounds, compositions, and methods of using thereof” (Sionna Therapeutics Inc., priority 2022, dated 2026)

Columns and labels:
NBD1 = target: T1, NBD1 (Homo sapiens, UniProt P13569); test: Aggregation analysis using differential static light scattering (DSLS), thermal stability of NBD1 (ΔTagg); format: binding; settings: ΔTagg versus DMSO control, NBD1 0.2 mg/ml
T1 construct: Purified recombinant NBD1 was produced using previously described methods; made in house
Outline: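 Differential static light scattering read from 25° C. to 70° C. every 0.5° C., ramp 1° C./min, on recombinant NBD1 (0.2 mg/ml; Tris/NaCl/MgCl2 buffer with 2 mM ATP, 2 mM DTT, pH 7.6, 1% glycerol) plus compound. Reported ΔTagg subtracts averaged DMSO Tagg from inflection-point Tagg; categories A ≤5, B >5-10, C >10-25° C.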

CFTR = target: T2, CFTR (Homo sapiens, UniProt P13569, DEL508-508); test: TECC24 AUC fold over DMSO @10 μM, CFTR-mediated transepithelial chloride transport in CF-HBE cells; format: cell-based; settings: test agent AUC divided by DMSO vehicle AUC, primary CF-HBE cells, ΔF508 homozygous donor, 48 hours incubation
T2 construct: Primary human bronchial epithelial cells from a ΔF508 homozygous CF donor; host or cells: primary human bronchial epithelial cells (CF-HBE), ΔF508 homozygous donor
Outline: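 Primary ΔF508-homozygous CF bronchial epithelial cells on inserts were incubated 48 h at 36.5 °C with compound in IL-13-containing medium. VT and TEER were then recorded in current-clamp mode (pH 7.4 HEPES bath) with benzamil 10 μM, forskolin 10 μM, then CFTR inhibitor-172 20 μM. The IEQ AUC between forskolin and inhibitor was divided by vehicle AUC.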

T1 sequence (P13569 423-646 limits assumed): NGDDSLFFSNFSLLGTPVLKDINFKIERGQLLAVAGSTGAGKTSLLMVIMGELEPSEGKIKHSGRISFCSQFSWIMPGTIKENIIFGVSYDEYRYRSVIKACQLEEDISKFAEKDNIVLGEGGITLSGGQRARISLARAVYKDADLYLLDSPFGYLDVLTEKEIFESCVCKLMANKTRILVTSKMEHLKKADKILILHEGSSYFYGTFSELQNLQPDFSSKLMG
T2 sequence (P13569 with tags, fused parts or gaps DEL508-508): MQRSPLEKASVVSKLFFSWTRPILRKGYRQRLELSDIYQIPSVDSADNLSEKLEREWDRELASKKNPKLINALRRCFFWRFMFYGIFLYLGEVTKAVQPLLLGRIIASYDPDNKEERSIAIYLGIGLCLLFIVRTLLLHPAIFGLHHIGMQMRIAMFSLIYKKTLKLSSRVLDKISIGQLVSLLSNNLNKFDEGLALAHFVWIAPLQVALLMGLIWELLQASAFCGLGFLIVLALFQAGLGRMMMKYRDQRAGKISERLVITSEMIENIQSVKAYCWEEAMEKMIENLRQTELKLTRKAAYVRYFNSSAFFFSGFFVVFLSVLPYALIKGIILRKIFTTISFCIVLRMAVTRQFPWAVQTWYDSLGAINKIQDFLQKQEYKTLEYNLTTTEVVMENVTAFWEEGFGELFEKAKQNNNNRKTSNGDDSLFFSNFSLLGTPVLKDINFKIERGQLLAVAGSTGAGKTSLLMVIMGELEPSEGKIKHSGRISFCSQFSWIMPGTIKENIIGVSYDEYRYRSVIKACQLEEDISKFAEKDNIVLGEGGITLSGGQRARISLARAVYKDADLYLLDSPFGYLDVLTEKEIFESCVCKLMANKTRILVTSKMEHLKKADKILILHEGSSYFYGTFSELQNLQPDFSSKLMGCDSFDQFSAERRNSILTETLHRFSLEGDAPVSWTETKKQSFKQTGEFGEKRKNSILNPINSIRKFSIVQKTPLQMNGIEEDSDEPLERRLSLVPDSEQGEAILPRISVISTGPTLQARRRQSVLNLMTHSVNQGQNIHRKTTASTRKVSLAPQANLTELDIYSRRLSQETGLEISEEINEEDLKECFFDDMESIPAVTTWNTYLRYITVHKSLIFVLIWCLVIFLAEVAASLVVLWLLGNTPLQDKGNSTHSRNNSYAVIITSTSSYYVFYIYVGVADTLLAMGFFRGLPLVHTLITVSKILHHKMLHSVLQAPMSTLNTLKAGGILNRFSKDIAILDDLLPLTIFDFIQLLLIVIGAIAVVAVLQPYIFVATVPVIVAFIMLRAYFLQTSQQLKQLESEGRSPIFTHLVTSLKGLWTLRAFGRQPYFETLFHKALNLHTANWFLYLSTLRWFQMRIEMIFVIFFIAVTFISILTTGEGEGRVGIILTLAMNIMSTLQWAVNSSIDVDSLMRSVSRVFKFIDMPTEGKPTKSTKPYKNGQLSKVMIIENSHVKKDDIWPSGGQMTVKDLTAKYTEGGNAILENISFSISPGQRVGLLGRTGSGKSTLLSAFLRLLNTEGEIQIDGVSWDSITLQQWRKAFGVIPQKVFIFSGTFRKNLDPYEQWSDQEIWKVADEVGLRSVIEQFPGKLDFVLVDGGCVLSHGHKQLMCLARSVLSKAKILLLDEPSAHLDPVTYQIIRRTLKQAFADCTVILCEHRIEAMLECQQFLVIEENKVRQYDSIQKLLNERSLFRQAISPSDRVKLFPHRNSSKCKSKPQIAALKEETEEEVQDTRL

| SMILES | DSLS 3D (100 μM ΔT) (NBD1) | TECC (AUC, 10 μM) (CFTR) |
| --- | --- | --- |
| Cn1nc2nc1-c1cc(ccc1F)Oc1c(F)cc3[nH]ccc3c1CCS(=O)(=O)CC(C)(C)OCCC2(C)c1cccc(CCC(=O)O)c1 (single isomer, unassigned) [Compound 73A, 3-[3-(22,28-difluoro-3,6,10,10-tetramethyl-12,12-dioxo-9,24-dioxa-12lambda6-thia-3,4,19,30-tetrazapentacyclo-[23.3.1.12,5.015,23.016,20]triaconta-1(29),2(30),4,15,17,20,22,25,27-nonaen-6-yl)phenyl]-propanoic Acid] | C (a value greater than 10 °C and less than or equal to 25 °C is marked “C”) | A (a TECC value less than 12 is marked “A”) |
| Cn1nc2nc1-c1cc(ccc1F)Oc1c(F)cc3[nH]ccc3c1CCS(=O)(=O)CC(C)(C)OCCC2(C)c1cccc(CCC(=O)O)c1 (single isomer, unassigned) [Compound 73B, 3-[3-(22,28-difluoro-3,6,10,10-tetramethyl-12,12-dioxo-9,24-dioxa-12lambda6-thia-3,4,19,30-tetrazapentacyclo-[23.3.1.12,5.015,23.016,20]triaconta-1(29),2(30),4,15,17,20,22,25,27-nonaen-6-yl)phenyl]-propanoic Acid] | A (an ΔTagg value less than or equal to 5 °C is marked “A”) | B (a value between 12-20 is marked “B”) |
| CC(CC(=O)O)c1cccc(C2(C)CCCC(C)(C)CS(=O)(=O)CCc3c(c(F)cc4[nH]ccc34)Oc3ccc(F)c(c3)-c3nc2nn3C)c1 (single isomer, unassigned) [Compound 79A, 3-[3-(22,28-difluoro-3,6,10,10-tetramethyl-12,12-dioxo-24-oxa-12lambda6-thia-3,4,19,30-tetrazapentacyclo[23.3.1.12,5.015,23.016,20]triaconta-1(29),2(30),4,15,17,20,22,25,27-nonaen-6-yl)phenyl]butanoic Acid] | C (a value greater than 10 °C and less than or equal to 25 °C is marked “C”) | C (a value between 20 and 80 is marked “C”) |
| CC(CC(=O)O)c1cccc(C2(C)CCCC(C)(C)CS(=O)(=O)CCc3c(c(F)cc4[nH]ccc34)Oc3ccc(F)c(c3)-c3nc2nn3C)c1 (single isomer, unassigned) [Compound 79B, 3-[3-(22,28-difluoro-3,6,10,10-tetramethyl-12,12-dioxo-24-oxa-12lambda6-thia-3,4,19,30-tetrazapentacyclo[23.3.1.12,5.015,23.016,20]triaconta-1(29),2(30),4,15,17,20,22,25,27-nonaen-6-yl)phenyl]butanoic Acid] | B (a value above 5 °C and less than or equal to 10 °C is marked “B”) | A (a TECC value less than 12 is marked “A”) |
| O=C(O)CCc1cccc(C2NC(=O)CCCS(=O)(=O)CCc3c(c(F)cc4[nH]ccc34)Oc3ccc(F)c(c3)-c3ncc2[nH]3)c1 (single isomer, unassigned) [Compound 80, 3-[3-[22,28-difluoro-8,12,12-trioxo-24-oxa-12lambda6-thia-3,7,19,30-tetrazapentacyclo[23.3.1.12,5.015,23.016,20]triaconta-1(29),2,4,15,17,20,22,25,27-nonaen-6-yl]phenyl]propanoic acid] | B (a value above 5 °C and less than or equal to 10 °C is marked “B”) | A (a TECC value less than 12 is marked “A”) |
| O=C1CCCS(=O)(=O)CCc2c(c(F)cc3[nH]ccc23)Oc2ccc(F)c(c2)-c2ncc([nH]2)C(c2ccccc2)N1 (single isomer, unassigned) [Compound 81, 22,28-difluoro-12,12-dioxo-6-phenyl-24-oxa-12lambda6-thia-3,7,19,30 tetrazapentacyclo[23.3.1.12,5.015,23.016,20]triaconta-1(29),2,4,15,17,20,22,25,27-nonaen-8-one] | A (an ΔTagg value less than or equal to 5 °C is marked “A”) | A (a TECC value less than 12 is marked “A”) |
| O=C(O)CCc1cccc(C2NC(=O)CCCS(=O)(=O)CCc3c(c(F)cc4[nH]ccc34)Oc3ccc(F)c(c3)-c3ncc2[nH]3)c1 (single isomer, unassigned) [Compound 82, 3-[3-[22,28-difluoro-8,12,12-trioxo-24-oxa-12lambda6-thia-3,7,19,30-tetrazapentacyclo [23.3.1.12,5.015,23.016,20]-triaconta-1(29),2,4,15,17,20,22,25,27-nonaen-6-yl]phenyl]propanoic acid] | C (a value greater than 10 °C and less than or equal to 25 °C is marked “C”) | A (a TECC value less than 12 is marked “A”) |
| O=C1CCCS(=O)(=O)CCc2c(c(F)cc3[nH]ccc23)Oc2ccc(F)c(c2)-c2ncc([nH]2)C(c2ccccc2)N1 (single isomer, unassigned) [Compound 83, 22,28-difluoro-12,12-dioxo-6-phenyl-24-oxa-12lambda6-thia-3,7,19,30-tetrazapentacyclo [23.3.1.12,5.015,23.016,20]-triaconta-1(29),2,4,15,17,20,22,25,27-nonaen-8-one] | B (a value above 5 °C and less than or equal to 10 °C is marked “B”) | A (a TECC value less than 12 is marked “A”) |
| Cc1cn2nc1-c1cc(ccc1F)Oc1c(F)cc3[nH]ccc3c1CCS(=O)(=O)CC(C)(C)COCC2c1cccc(CCC(=O)O)c1 (single isomer, unassigned) [Compound 84B, 3-[3-(22,28-difluoro-3,10,10-trimethyl-12,12-dioxo-8,24-dioxa-12lambda6-thia-5,19,30-triazapentacyclo[23.3.1.12,5.015,23.016,20]triaconta-1(29),2(30),3,15,17,20,22,25,27-nonaen-6-yl)phenyl]propanoic acid] | A (an ΔTagg value less than or equal to 5 °C is marked “A”) | A (a TECC value less than 12 is marked “A”) |
| Cc1cnn2c1-c1cc(ccc1F)Oc1c(F)cc3[nH]ccc3c1CCS(=O)(=O)CC(C)(C)COCC2c1cccc(CCC(=O)O)c1 (single isomer, unassigned) [Compound 85, 3-[3-(23,29-difluoro-3,11,11-trimethyl-13,13-dioxo-9,25-dioxa-13λ6-thia-5,6,20-triazapentacyclo[24.3.1.02,6.016,24.017,21]triaconta-1(30),2,4,16,18,21,23,26,28-nonaen-7-yl)phenyl]propanoic Acid] | A (an ΔTagg value less than or equal to 5 °C is marked “A”) | A (a TECC value less than 12 is marked “A”) |
| CC1(C)CS(=O)(=O)CCc2c(c(F)cc3[nH]ccc23)Oc2ccc(F)c(c2)-c2ccn(n2)C(c2cccc(CCC(=O)O)c2)CCO1 (single isomer, unassigned) [Compound 87A, 3-[3-(22,28-difluoro-10,10-dimethyl-12,12-dioxo-9,24-dioxa-12lambda6-thia-5,19,30-triazapentacyclo[23.3.1.12,5.015,23.016,20]-triaconta-1(29),2(30),3,15,17,20,22,25,27-nonaen-6-yl)phenyl]propanoic acid] | B (a value above 5 °C and less than or equal to 10 °C is marked “B”) | A (a TECC value less than 12 is marked “A”) |
| CC1(C)CS(=O)(=O)CCc2c(c(F)cc3[nH]ccc23)Oc2ccc(F)c(c2)-c2ccn(n2)C(c2cccc(CCC(=O)O)c2)CCO1 (single isomer, unassigned) [Compound 87B, 3-[3-(22,28-difluoro-10,10-dimethyl-12,12-dioxo-9,24-dioxa-12lambda6-thia-5,19,30-triazapentacyclo[23.3.1.12,5.015,23.016,20]-triaconta-1(29),2(30),3,15,17,20,22,25,27-nonaen-6-yl)phenyl]propanoic acid] | C (a value greater than 10 °C and less than or equal to 25 °C is marked “C”) | A (a TECC value less than 12 is marked “A”) |
| CCn1nc2nc1-c1cc(ccc1F)Oc1c(F)cc3[nH]ccc3c1CCS(=O)(=O)CC(C)(C)CCCC2(C)c1cccc(CCC(=O)O)c1 (single isomer, unassigned) [Compound 91A, 3-[3-(3-ethyl-22,28-difluoro-6,10,10-trimethyl-12,12-dioxo-24-oxa-12lambda6-thia-3,4,19,30-tetrazapentacyclo[23.3.1.12,5.015,23.016,20]triaconta-1(29),2(30),4,15,17,20,22,25,27-nonaen-6-yl)phenyl]propanoic Acid] | C (a value greater than 10 °C and less than or equal to 25 °C is marked “C”) | A (a TECC value less than 12 is marked “A”) |
| CCn1nc2nc1-c1cc(ccc1F)Oc1c(F)cc3[nH]ccc3c1CCS(=O)(=O)CC(C)(C)CCCC2(C)c1cccc(CCC(=O)O)c1 (single isomer, unassigned) [Compound 91B, 3-[3-(3-ethyl-22,28-difluoro-6,10,10-trimethyl-12,12-dioxo-24-oxa-12lambda6-thia-3,4,19,30-tetrazapentacyclo[23.3.1.12,5.015,23.016,20]triaconta-1(29),2(30),4,15,17,20,22,25,27-nonaen-6-yl)phenyl]propanoic Acid] | A (an ΔTagg value less than or equal to 5 °C is marked “A”) | A (a TECC value less than 12 is marked “A”) |
